In experiment [1] the target is T1, MDM2 (Homo sapiens, UniProt Q00987).
T1 construct: made in house
The experiment is described as follows: Inhibition test of MDM2-P53 (GST-MDM2, Biotin-P53, Anti-GST-Tb, SA-XL665). The class given is binding. The method, boiled down:
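HTRF-type assay using 4 nM GST-MDM2 (final), Biotin-P53, SA-XL665 and anti-GST-Tb in PBS with 0.1% BSA, 5 mM DTT and 1 mM AEBSF. Compounds in 5-fold serial dilutions over twelve points; incubation 90 min at 25° C with shaking before plate-reader read-out.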

Experiment [2] deals with human osteosarcoma cell line SJSA-1. The experiment is described as follows: Inhibition of proliferation of human osteosarcoma cell line SJSA-1 (DAPI staining, In Cell Analyzer). The note with it: Homo sapiens, SJSA-1, 72 h, read-out: IC50 (nM), inhibitory activity on proliferation of human osteosarcoma cell line SJSA-1, SJSA-1, incubated 72 h.

T1 sequence (Q00987 whole entry): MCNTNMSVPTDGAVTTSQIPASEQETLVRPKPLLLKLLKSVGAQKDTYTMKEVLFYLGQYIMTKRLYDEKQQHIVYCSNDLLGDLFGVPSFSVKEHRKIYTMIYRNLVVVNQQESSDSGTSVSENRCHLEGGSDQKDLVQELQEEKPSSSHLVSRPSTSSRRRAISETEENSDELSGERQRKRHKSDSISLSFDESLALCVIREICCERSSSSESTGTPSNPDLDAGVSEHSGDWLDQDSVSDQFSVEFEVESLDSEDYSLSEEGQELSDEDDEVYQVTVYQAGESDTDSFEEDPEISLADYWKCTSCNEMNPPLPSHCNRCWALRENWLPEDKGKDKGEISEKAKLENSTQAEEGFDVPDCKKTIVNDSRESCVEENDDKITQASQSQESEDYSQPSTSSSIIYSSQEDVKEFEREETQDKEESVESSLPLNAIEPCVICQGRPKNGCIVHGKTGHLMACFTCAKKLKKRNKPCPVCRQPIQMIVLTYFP

`COc1ccccc1-c1nc2c(n1C(C)C)[C@]1(C(=O)Nc3cc(Cl)ccc31)N(c1cc(Cl)ccc1C)C2=O` [Example R-5, (R)-6-chloro-5′-(5-chloro-2-methylphenyl)-3′-isopropyl-2′-(2-methoxyphenyl)-3′H-spiro[dihydroindole-3,4′-pyrrolo[3,4-d]imidazole]-2,6′(5′H)-dione]: the IC50 worked out at 109 nM in experiment [1] and 1600 nM in experiment [2].

In the case of `COc1ccc(-c2nc3c(n2C(C)C)[C@]2(C(=O)Nc4cc(Cl)ccc42)N(c2cc(Cl)ccc2C)C3=O)c(OC)n1` [Example R-8, (R)-6-chloro-5′-(5-chloro-2-methylphenyl)-2′-(2,6-dimethoxypyridin-3-yl)-3′-isopropyl-3′H-spiro[dihydroindole-3,4′-pyrrolo[3,4-d]imidazole]-2,6′(5′H)-dione], the IC50 in experiment [1] stood at 329 nM; in experiment [2], 2290 nM.

For `COc1ccc(-c2nc3c(n2C(C)C)[C@]2(C(=O)Nc4cc(Cl)ccc42)N(c2cc(Cl)ccc2C)C3=O)c(OC)c1` [Example R-9, (R)-6-chloro-5′-(5-chloro-2-methylphenyl)-2′-(2,4-dimethoxyphenyl)-3′-isopropyl-3′H-spiro[dihydroindole-3,4′-pyrrolo[3,4-d]imidazole]-2,6′(5′H)-dione], the IC50 in experiment [1] was 332 nM; in experiment [2], 2820 nM.

Take `COc1cnccc1-c1nc2c(n1C(C)C)[C@]1(C(=O)Nc3cc(Cl)ccc31)N(c1cc(Cl)ccc1C)C2=O` [Example R-10, (R)-6-chloro-5′-(5-chloro-2-methylphenyl)-3′-isopropyl-2′-(3-methoxypyridin-4-yl)-3′H-spiro[dihydroindole-3,4′-pyrrolo[3,4-d]imidazole]-2,6′(5′H)-dione]: the IC50 stood at 117 nM in experiment [1] and 2170 nM in experiment [2].

For `COc1cc(OC)c(-c2nc3c(n2C(C)C)[C@]2(C(=O)Nc4cc(Cl)ccc42)N(c2cc(Cl)ccc2C)C3=O)cn1` [Example R-11, (R)-6-chloro-5′-(5-chloro-2-methylphenyl)-2′-(4,6-dimethoxypyridin-3-yl)-3′-isopropyl-3′H-spiro[dihydroindole-3,4′-pyrrolo[3,4-d]imidazole]-2,6′(5′H)-dione], the IC50 in experiment [1] amounted to 257 nM; in experiment [2] it was 1510 nM.

Consider `COc1cc(C#N)ccc1-c1nc2c(n1C(C)C)[C@]1(C(=O)Nc3cc(Cl)ccc31)N(c1cc(Cl)ccc1C)C2=O` [Example R-12, (R)-4-(6-chloro-5′-(5-chloro-2-methylphenyl)-3′-isopropyl-2,6′-dioxo-5′,6′-dihydro-3′H-spiro[dihydroindole-3,4′-pyrrolo[3,4-d]imidazole]-2′-yl)-3-methoxybenzonitrile], for which the IC50 stood at 368 nM in experiment [1] and 2440 nM in experiment [2].

Regarding `COc1ccc(C#N)cc1-c1nc2c(n1C(C)C)[C@]1(C(=O)Nc3cc(Cl)ccc31)N(c1cc(Cl)ccc1C)C2=O` [Example R-13, (R)-3-(6-chloro-5′-(5-chloro-2-methylphenyl)-3′-isopropyl-2,6′-dioxo-5′,6′-dihydro-3′H-spiro[dihydroindole-3,4′-pyrrolo[3,4-d]imidazole]-2′-yl)-4-methoxybenzonitrile], the IC50 is 121 nM in experiment [1] and 1120 nM in experiment [2].

Consider `CCc1ccc(Cl)cc1N1C(=O)c2nc(-c3cnc(OC)nc3OC)n(C(C)C)c2[C@]12C(=O)Nc1cc(Cl)ccc12` [Example R-15, (R)-6-chloro-5′-(5-chloro-2-ethylphenyl)-2′-(2,4-dimethoxypyrimidin-5-yl)-3′-isopropyl-3′H-spiro[dihydroindole-3,4′-pyrrolo[3,4-d]imidazole]-2,6′(5′H)-dione], for which the values for the IC50 in experiment [1] and in experiment [2] were 107 nM and 840 nM, respectively.

In the case of `COc1ncc(-c2nc3c(n2C(C)C)[C@]2(C(=O)Nc4cc(Cl)ccc42)N(c2cc(Cl)cn(C)c2=O)C3=O)c(OC)n1` [Example R-16, (R)-6-chloro-5′-(5-chloro-1-methyl-2-oxo-1,2-dihydropyridin-3-yl)-2′-(2,4-dimethoxypyrimidin-5-yl)-3′-isopropyl-3′H-spiro[dihydroindole-3,4′-pyrrolo[3,4-d]imidazole]-2,6′(5′H)-dione], the IC50 in experiment [1] was found to be 570 nM; in experiment [2], 20100 nM.

(Values after patent US11339171B2, “MDM2 inhibitors” (Gan & Lee Pharmaceuticals, priority 2017, dated 2022).)
